Reference: patent US9943528B2 (MAPREG, priority 2016, dated 2018)

What was measured:
[1] = system: Wistar Kyoto (WKY) rats; experiment: Elevated-plus maze (EPM) in WKY rats, acute treatment; format: in vivo, rat; settings: MAP4343 10 mg/kg s.c., fluoxetine 10 mg/kg, ketamine 30 mg/kg i.p., FIG. 5D
Experimental: (§1) After a 6-day period of acclimatization, all experimental groups received daily successive subcutaneous (250 μl per rat) and intraperitoneal (1 ml/kg) injections. WI rats received injection of vehicle (sesame oil+saline) while WKY rats were randomly assigned to […] experimental groups, as follow: KWY rats receiving only vehicle (sesame oil+saline) and WKY rats treated with MAP4343 (10 mg/kg, s.c.; rats received in parallel i.p. injections of saline), fluoxetine (10 mg/kg i.p., rats received in parallel s.c. injections of sesame oil) or ketamine (30 mg/kg, i.p.; rats received in parallel s.c. injections of sesame oil) (see FIG. 3).
(§2) After, a 6-day period of acclimatization, the acute phase of treatment started for 4 days during behavioral tests were performed (FIG. 3). All animals were injected 1 h 30 before the starting of behavioral test.
We used the elevated-plus maze (EPM) as an assay of anxiety-related behavior in rodents (Walf and Frye, 2007). […] The time spent in the open versus closed arms was blindly measured by two independent experimenters from the recorded video, and the open arm-index was calculated as follow: time in the open arms (sec)/[time in open arms (sec)+time in closed arms (sec)].

[2] = target: T1, human progesterone receptor (PR) (Homo sapiens, UniProt P06401); experiment: Test of progesterone receptor agonist activity (MMTV-luciferase transactivation in transfected HEK293T cells); format: cell-based; settings: 24 hours, increasing amounts, FIG. 1
T1 construct: expressed in transfected cells; host or cells: HEK293T
T1 sequence (P06401 1-933): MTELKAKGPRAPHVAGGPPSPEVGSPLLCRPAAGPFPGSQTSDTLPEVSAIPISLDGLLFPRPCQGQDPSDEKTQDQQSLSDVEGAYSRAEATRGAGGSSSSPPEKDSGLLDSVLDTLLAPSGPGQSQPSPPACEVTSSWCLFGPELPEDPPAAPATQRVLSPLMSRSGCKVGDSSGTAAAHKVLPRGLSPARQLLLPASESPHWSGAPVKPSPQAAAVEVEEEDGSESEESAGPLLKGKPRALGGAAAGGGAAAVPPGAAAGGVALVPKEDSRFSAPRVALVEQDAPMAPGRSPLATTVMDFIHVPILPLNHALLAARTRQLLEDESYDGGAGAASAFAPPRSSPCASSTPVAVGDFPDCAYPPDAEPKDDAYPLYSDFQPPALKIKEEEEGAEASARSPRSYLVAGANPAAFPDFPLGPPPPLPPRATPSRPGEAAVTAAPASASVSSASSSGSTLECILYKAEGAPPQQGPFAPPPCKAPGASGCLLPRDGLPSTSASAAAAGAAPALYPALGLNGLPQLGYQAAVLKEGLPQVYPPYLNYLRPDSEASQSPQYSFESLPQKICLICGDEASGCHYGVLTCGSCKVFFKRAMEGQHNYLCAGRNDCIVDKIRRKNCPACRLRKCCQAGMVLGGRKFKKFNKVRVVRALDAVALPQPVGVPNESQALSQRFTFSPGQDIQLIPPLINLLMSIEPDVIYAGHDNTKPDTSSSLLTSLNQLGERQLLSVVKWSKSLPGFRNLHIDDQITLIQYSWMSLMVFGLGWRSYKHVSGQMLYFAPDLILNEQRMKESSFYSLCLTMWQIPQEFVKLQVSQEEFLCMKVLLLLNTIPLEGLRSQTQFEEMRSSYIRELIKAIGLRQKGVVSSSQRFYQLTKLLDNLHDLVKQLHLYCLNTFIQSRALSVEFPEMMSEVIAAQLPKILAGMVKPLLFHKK
Experimental: The main experimental setting used is the following: HEK293T cells were transiently transfected, using calcium phosphate precipitation technology, with expression vectors pSG5hPR (which permits expression of human progesterone receptor (PR)), pFC31-luc (contains the luciferase gene under the control of the MMTV promoter, which is in turn activated by binding of a progestin to progesterone receptor) and pcbetagal (which permits expression of betagalactosidase), and cultured during 24 hours with increasing amounts of various compositions:
Test of Progesterone Receptor Agonist Activity: Transfected Cells were Cultured with Increasing Amounts of Progesterone or 3-Methoxy-Pregnenolone

[3] = system: Wistar Kyoto (WKY) rats; experiment: Open-field arena (OFA) in WKY rats, acute treatment; format: in vivo, rat; settings: MAP4343 10 mg/kg s.c., fluoxetine 10 mg/kg i.p., ketamine 30 mg/kg i.p.
Experimental: as §1, §2
The animals were individually placed in the open field arena (OFA) (70×100×70 cm), with a central square (35×50 cm), located in a 50 lux illuminated room and videotaped during 3 min using a computerized system (VideoTrack V2.5, ViewPoint, Lyon, France).
OFA allows firstly the evaluation of total locomotor activity (LMA) thereby measuring the total distance travelled in the arena (in cm). Secondly, measurements of the activity in the center of the arena like (i) the number of entries in the center of arena and (ii) the total time spent in the center of arena (in sec) provide cues of anxiety-like behavior (Prut and Belzung, 2003). All these behavioral parameters were instantaneously measured automatically with the VideoTrack V2.5 software from the videos.

[4] = system: PC12 cells; settings: cited from earlier work

For `CO[C@H]1CC[C@@]2(C)C(=CC[C@H]3[C@@H]4CC[C@H](C(C)=O)[C@@]4(C)CC[C@@H]32)C1` [MAP4343, 3β-methoxy-pregna-5-ene-20-one], the “open-arm (OA) index in EPM, change vs WKY receiving vehicle alone” value [1] was 165%, the “progesterone receptor agonist activity (transactivation, expression of luciferase)” value [2] was “does not have progesterone receptor agonist activity” and the “locomotor activity (total distance travelled in the open-field arena), change vs WKY receiving vehicle” value ([3]; 3 min, FIG. 5A) was “did not modify significantly the locomotor activity”. The “number of entries in the central square of OFA, change vs WKY receiving only vehicle” value ([3]; FIG. 5B) was “+289%”, the “time spent in the center of open-field vs WKY receiving vehicle” value ([3]; FIG. 5C) was “did not modify the low time spent in central square of arena” and the neurite extension [4] was “enhance neurite extension”.
